Assay results reported in patent US5994365A, “Substituted diazaanthracene compounds having pharmaceutical utility” (Diazans Limited, priority 1998, dated 1999).

Columns and labels:
Staphylococcus species = assay: Effect of age of the dimer solution on MIC (stability of the solution); type: physicochemical; conditions: stored at RT in foil wrapped tube
Excerpt: The dimer solution was two weeks old at this time. When the additional Staph strains were then retested using a freshly made solution of the dimer, the MICs were lower (see Table E). The stability of the solution stored at RT in a foil wrapped tube could be a variable contributing to the discrepancy between MICs.

P. aeruginosa = assay: Broth microdilution (NCCLS guidelines), MIC; type: cell-based, Pseudomonas aeruginosa; conditions: Table A
Procedure: The dimer product of Example 15 was obtained in powder form. A stock solution of 1280 mg/L of the dimer in dimethylsulfoxide (DMSO) was prepared and stored at room temperature in a foil-wrapped screw-capped tube (10 ml). Subsequent dilutions were prepared using cation-adjusted Mueller-Hinton broth (50 mg/L Mg). […] It was resuspended upon mixing each time an aliquot was taken from the solution.
Approximately 100 varied bacterial isolates were initially collected for screening, along with 9 ATCC organisms. Forty additional strains of Staphylococcus species were subsequently screened. All isolates were identified according to generally accepted lab protocol.
Broth microdilution was performed according to NCCLS guidelines. Microdilution panels were prepared using doubling dilutions of the dimer in ~250 μl plastic, 96-well trays. Inoculum suspension equal to a 0.5 McFarland standard were further diluted and added to the microdilution trays to achieve a final inoculum of 5×10^5 CFU/ml (5×10^4 CFU/well). Colony counts were performed to confirm the final inoculum, as well as its purity. Each strain was also tested in a growth control well containing only MHB for viability.
Microdilution trays were incubated at 35° C. in ambient air or 5% CO2 as appropriate for 16-20 hours. After incubation, the minimal inhibitory concentration (MIC) was defined as the lowest concentration of the dimer with no evidence of growth. Since 10 or more strains of most organisms were tested; a range of MICs was determined for each organism, as well as the concentration of the dimer that inhibited 50% of the strains (MIC50) and the concentration of the dimer that inhibited 90% of the strains (MIC90).

In the case of “10,10'-bis(3,6-dimethyl-5,10-dihydro-1,8-diazaanthracen-5-one) and 5,5'-bis(3,6-dimethyl-5,10-dihydro-1,8-diazaanthracen-10-one) [Example 15]”, the “MICs with two weeks old dimer solution vs. original screen” value (Staphylococcus species) is reported as “MICs appeared to be significantly higher”, the MIC50 (P. aeruginosa; 10 strains) is reported as over 64 mg/L and the MIC90 (P. aeruginosa; 10 strains) is reported as over 64 mg/L. For the same substance, the “Range of MICs” value (P. aeruginosa; 10 strains) was at least 64 mg/L and the MIC (P. aeruginosa; ATCC PA 27853 (×2)) was over 64 mg/L.
